Laboratory results taken from patent publication US20090042773A1, “P13 kinase gamma inhibitors for the treatment of anaemia” (priority 2004, published 2009).

Tests used:
[1] = molecular target: Human recombinant GST-PI3Kα (Homo sapiens, UniProt P42336)
[2] = system: Mobilized CD34 positive stem cells; test: EPO induced erythrocyte formation (stem cell culture, colony assay, flow cytometry); format: cell-based
Text: b) EPO Induced Erythrocyte Formation:
Investigation of the effect of PI3K inhibitors on the differentiation of red cell population, but also on the expansion of undifferentiated stem cells. Two different culture systems. A and B, were explored.
Culture System A (Containing No IL-3):
Differentiation of bone-marrow derived stem cells into the red cell line only. Semi-optimal systems in respect of the expansion of colony forming units, because of the lack of IL3 and other early acting growth factors.
The culture conditions are: IMDM-culture medium, 30% pre-selected fetal calf serum, 1% BSA, Glutamine 40 ug/ml iron saturated transferin, 10−6 Mol Mercaptoethanol, 10 ng/ml SCF, 100 U/ml IL6, 7 U Epo.
Culture System B (Containing IL-3):
Colony forming unit assay. […]
Colony forming units and the expression of Glycophorin A (marker) on the cell surface were used as markers for stem cell erythropoesis. Additionally, the presence of the cell surface antigen CD34 was also monitored to assess the differentiation status of the in vitro expanded cell lineage.
Relative expansion rate of GlyA-positive cells: At day 0, the stage of differentiation only few, if any cells, are GlyA positive. […] The expansion rate is calculated as the absolute number of GlyA-positive cells at the time point of interest divided by the absolute number of GlyA-positive cells in the starting material.

[3] = molecular target: Human recombinant GST-PI3Kγ (Homo sapiens, UniProt P48736)
[4] = molecular target: T1, Human recombinant GST-PI3Kδ (Homo sapiens, UniProt O00329)
T1 sequence (O00329 1-1044): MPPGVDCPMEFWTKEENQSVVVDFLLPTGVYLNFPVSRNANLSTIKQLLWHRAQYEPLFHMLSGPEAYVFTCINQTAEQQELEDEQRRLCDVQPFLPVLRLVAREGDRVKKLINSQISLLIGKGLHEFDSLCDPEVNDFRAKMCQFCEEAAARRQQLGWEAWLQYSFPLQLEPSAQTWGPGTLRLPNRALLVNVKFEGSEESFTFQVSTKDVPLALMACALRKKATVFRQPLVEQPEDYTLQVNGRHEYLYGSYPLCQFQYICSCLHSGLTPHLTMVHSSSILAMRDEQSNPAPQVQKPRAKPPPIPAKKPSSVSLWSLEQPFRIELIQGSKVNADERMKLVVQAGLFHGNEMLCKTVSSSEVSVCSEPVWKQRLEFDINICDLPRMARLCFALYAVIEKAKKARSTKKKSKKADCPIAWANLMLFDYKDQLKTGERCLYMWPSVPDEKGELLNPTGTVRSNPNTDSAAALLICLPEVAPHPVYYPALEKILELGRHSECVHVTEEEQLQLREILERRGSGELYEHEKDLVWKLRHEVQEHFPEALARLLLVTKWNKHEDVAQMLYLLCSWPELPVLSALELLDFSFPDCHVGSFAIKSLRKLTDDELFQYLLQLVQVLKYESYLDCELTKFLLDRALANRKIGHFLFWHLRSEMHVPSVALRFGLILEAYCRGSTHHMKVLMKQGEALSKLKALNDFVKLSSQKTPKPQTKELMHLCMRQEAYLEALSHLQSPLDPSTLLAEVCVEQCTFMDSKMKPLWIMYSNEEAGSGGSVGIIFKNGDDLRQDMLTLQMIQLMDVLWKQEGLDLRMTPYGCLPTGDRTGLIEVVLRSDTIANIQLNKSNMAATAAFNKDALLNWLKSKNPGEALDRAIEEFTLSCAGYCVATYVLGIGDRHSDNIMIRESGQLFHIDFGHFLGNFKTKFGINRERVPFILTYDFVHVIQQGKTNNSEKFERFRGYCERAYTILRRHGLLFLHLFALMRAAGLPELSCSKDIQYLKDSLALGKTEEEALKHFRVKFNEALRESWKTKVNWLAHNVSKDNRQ

CD34+ progenitor cells = conditions: Myklebust et al., Experimental Hematology 30 (2002), 990; cited from earlier work
[5] = system: K562 erythroleukemia cells; conditions: Neri et al., Cellular Signalling 14 (2002) 21; cited from earlier work

Sequence of Human recombinant GST-PI3Kγ (P48736 whole entry): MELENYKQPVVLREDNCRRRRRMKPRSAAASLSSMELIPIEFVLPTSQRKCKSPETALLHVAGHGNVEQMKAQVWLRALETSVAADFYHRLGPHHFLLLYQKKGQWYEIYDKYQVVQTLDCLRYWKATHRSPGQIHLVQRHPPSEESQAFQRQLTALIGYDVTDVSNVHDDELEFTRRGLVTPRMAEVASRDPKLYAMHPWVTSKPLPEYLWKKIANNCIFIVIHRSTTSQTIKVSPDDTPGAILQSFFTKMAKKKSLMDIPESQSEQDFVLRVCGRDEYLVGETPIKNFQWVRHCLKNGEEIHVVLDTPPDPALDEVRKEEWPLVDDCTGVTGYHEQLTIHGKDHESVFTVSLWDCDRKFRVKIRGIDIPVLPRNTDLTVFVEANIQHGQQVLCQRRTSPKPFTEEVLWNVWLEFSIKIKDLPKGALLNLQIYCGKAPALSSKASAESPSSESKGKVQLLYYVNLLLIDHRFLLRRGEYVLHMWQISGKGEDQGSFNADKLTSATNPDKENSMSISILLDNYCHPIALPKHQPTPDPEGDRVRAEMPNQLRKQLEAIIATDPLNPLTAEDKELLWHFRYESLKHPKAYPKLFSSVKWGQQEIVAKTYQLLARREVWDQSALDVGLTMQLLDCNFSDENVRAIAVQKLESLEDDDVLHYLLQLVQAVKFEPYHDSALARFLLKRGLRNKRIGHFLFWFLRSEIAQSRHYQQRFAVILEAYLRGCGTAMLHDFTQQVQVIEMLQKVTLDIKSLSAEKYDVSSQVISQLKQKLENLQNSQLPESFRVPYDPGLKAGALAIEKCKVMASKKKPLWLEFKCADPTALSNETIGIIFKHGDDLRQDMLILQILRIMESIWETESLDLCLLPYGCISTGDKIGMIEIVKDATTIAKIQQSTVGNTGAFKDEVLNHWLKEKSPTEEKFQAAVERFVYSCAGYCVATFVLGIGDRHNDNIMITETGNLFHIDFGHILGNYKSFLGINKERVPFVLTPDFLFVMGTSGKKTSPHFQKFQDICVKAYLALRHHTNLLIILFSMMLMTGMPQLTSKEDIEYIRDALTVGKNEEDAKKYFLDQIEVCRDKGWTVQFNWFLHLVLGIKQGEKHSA
Sequence of Human recombinant GST-PI3Kα (P42336 whole entry): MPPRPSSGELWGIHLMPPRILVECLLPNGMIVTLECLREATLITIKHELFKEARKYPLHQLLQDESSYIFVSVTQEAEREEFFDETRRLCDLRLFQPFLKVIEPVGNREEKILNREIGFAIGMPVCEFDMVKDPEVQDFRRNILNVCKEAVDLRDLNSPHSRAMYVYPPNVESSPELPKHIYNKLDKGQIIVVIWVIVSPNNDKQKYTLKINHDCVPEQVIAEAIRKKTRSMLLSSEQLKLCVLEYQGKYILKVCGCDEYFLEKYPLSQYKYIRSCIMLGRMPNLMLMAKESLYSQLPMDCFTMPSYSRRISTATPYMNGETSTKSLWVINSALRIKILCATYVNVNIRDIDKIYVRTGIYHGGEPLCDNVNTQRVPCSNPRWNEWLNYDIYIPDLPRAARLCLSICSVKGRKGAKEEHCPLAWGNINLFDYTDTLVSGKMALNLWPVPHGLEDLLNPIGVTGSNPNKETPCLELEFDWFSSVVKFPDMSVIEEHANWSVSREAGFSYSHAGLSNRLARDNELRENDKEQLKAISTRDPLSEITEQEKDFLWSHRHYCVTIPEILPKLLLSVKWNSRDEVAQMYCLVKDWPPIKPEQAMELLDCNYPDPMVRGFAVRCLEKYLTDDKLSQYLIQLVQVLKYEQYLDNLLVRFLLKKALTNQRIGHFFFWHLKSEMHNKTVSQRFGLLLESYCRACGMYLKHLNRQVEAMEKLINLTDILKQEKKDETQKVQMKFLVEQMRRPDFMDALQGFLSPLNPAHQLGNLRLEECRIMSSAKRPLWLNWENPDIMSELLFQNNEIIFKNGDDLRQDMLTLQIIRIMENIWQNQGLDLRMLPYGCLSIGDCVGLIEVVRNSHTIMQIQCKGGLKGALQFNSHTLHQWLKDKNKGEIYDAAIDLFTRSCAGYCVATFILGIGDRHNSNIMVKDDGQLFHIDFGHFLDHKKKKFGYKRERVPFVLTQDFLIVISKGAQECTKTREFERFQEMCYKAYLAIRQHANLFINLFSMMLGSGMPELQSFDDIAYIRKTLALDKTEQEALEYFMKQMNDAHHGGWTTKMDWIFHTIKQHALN

| IC50 [1] | IC50 [3] | IC50 [4] | SMILES | also measured |
| --- | --- | --- | --- | --- |
| 250 nM | 70 nM | 1700 nM | O=C1NC(=O)C(=Cc2ccc3c(c2)OCO3)S1 [Example 1, 5-(1,3-benzodioxol-5-ylmethylene)-1,3-thiazolidine-2,4-dione] | increase of the expansion of nucleated cells over the control ([2]; in 13 days, compound added at day 1): 4 fold; cell proliferation ([2]; same culture, 13 days): not enhanced |
| 450 nM | 115 nM |  | O=C1NC(=S)SC1=Cc1ccc2c(c1)OCO2 [Example 2, 5-(1,3-benzodioxol-5-ylmethylene)-2-thioxo-1,3-thiazolidin-4-one] |  |
| 310 nM | 50 nM |  | O=C1NC(=O)C(=Cc2ccc3c(c2)OCCO3)S1 [Example 3, 5-(2,3-dihydro-1,4-benzodioxin-6-ylmethylene)-1,3-thiazolidine-2,4-dione] |  |
| 1370 nM | 316 nM | 4870 nM | O=C1NC(=O)C(=Cc2ccc3c(c2)C(=O)c2ccccc2C3=O)S1 [Example 4, 5-[(9,10-dioxo-9,10-dihydroanthracen-2-yl)methylene]-1,3-thiazolidine-2,4-dione] |  |
| 170 nM | 30 nM |  | CN1C(=O)COc2ccc(C=C3SC(=O)NC3=O)cc21 [Example 6, 5-[(4-methyl-3-oxo-3,4-dihydro-2H-1,4-benzoxazin-6-yl)methylene]-1,3-thiazolidine-2,4-dione] |  |
|  | 710 nM |  | N=C1NC(=O)C(=Cc2ccc3c(c2)OCO3)S1 [Example 7, 5-(1,3-benzodioxol-5-ylmethylene)-2-imino-1,3-thiazolidin-4-one] |  |
| 135 nM | 30 nM | 1970 nM | Cc1coc2ccc(C=C3SC(=O)NC3=O)cc12 [Example 8, 5-(3-Methyl-benzofuran-5-ylmethylene)-thiazolidine-2,4-dione] |  |
| 32 nM | 8 nM | 2480 nM | O=C(O)C=Cc1coc2ccc(C=C3SC(=O)NC3=O)cc12 [Example 9, 3-[5-(2,4-Dioxo-thiazolidin-5-ylidenemethyl)benzofuran-3-yl]-acrylic acid] |  |
| 2100 nM | 590 nM |  | O=C1NC(=O)C(=Cc2ccc3c(c2)NCCO3)S1 [Example 10, 5-(3,4-Dihydro-2H-benzo[1,4]oxazin-6-ylmethylene)-thiazolidine-2,4-dione] |  |
| 460 nM | 95 nM | 10000 nM | Nc1noc2ccc(C=C3SC(=O)NC3=O)cc12 [Example 11, 5-(3-Amino-benzo[d]isoxazol-5-ylmethylene)thiazolidine-2,4-dione] |  |
| 370 nM | 35 nM | 2730 nM | O=C1NC(=O)C(=Cc2ccc3nonc3c2)S1 [Example 12, 5-Benzo[1,2,5]oxadiazol-5-ylmethylene-thiazolidine-2,4-ione] |  |
| 1200 nM | 290 nM |  | O=C1NC(=O)C(=Cc2ccc3cc(F)oc3c2)S1 [Example 13, 5-(2-Fluoro-benzofuran-6-ylmethylene)-thiazolidine-2,4-dione] |  |
| 231 nM | 21 nM | 1170 nM | N#CN=C1NC(=O)C(=Cc2ccc3c(c2)OCO3)S1 [Example 14, 5-Benzo[1,3]dioxol-5-ylmethylene-4-oxo-thiazolidin-2-ylidene-cyanamide] |  |
|  |  |  | O=c1cc(N2CCOCC2)oc2c(-c3ccccc3)cccc12 [LY294002] | effect on EPO induced erythropoiesis from CD34+ progenitor cells (CD34+ progenitor cells): inhibit EPO induced erythropoiesis |
|  |  |  | COC[C@H]1OC(=O)c2coc3c2[C@@]1(C)C1=C(C3=O)[C@@H]2CCC(=O)[C@@]2(C)C[C@H]1OC(C)=O [Wortmannin, wortmannin] | effect on EPO induced erythroid differentiation of K562 cells [5]: prevents K562 erythroleukemia cells from EPO induced erythroid differentiation |
